Assay type in all cases: cell-based
The target in one assay is hGcgR (Homo sapiens, UniProt P47871). The experiment in a line: Functional cAMP activation in the presence of 0.1% casein (no HSA). Conditions: read-out: Relative cAMP EC50, hGcgR.
Assay [1] deals with T1, hGLP-1R (Homo sapiens, UniProt P43220). The assay is described as above. The settings on record: read-out: Relative cAMP EC50, hGLP-1R.
The target of the next assay is human GcgR (Homo sapiens, UniProt P47871). Briefly: Functional cAMP activity in the presence of 1% HSA. Conditions: read-out: cAMP Rel EC50, hGcgR.
Sequence of human GcgR (P47871 26-477): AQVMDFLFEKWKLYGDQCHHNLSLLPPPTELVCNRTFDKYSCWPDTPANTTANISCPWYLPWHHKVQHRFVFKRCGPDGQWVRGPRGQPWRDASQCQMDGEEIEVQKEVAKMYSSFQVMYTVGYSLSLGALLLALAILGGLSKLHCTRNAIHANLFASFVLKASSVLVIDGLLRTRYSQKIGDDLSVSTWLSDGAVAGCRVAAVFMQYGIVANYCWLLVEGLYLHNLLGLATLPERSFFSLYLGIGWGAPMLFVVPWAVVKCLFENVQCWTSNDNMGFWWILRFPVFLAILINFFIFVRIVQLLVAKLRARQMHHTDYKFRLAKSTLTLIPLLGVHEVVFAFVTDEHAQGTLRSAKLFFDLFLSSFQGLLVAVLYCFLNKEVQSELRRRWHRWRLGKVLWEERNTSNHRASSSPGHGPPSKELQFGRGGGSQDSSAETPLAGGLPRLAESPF
For assay [2], the target named is T1, hGLP-1R. The experiment in a line: Functional cAMP activity in the presence of 1% HSA. Conditions: read-out: cAMP Rel EC50, hGLP-1R.
In assay [3] the target is T2, hGIPR (Homo sapiens, UniProt P48546).
T2 sequence (P48546 22-466): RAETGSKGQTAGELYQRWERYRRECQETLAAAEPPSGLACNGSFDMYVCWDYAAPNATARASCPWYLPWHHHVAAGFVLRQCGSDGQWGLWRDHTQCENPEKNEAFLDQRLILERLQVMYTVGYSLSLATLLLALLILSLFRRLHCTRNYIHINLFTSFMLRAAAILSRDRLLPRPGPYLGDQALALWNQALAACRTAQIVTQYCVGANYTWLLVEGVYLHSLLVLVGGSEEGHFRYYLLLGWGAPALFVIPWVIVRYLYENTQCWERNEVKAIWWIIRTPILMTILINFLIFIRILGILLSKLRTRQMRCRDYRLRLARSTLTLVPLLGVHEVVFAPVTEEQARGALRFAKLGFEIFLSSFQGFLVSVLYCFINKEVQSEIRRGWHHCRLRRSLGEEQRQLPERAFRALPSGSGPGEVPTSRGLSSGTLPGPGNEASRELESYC
The experiment in a line: Functional cAMP activation in the presence of 0.1% casein (no HSA). Conditions: read-out: Relative cAMP EC50, hGIPR.

Assay [4] addresses T2, hGIPR. Briefly: Functional cAMP activity in the presence of 1% HSA. Conditions: read-out: cAMP Rel EC50, hGIPR.
Setting [5] is: in the presence of 0.1% casein (no HSA), geometric mean.

Like-named read-outs stand apart in the source and are kept apart here. Starred links: 1 amine or outer side, 2 acyl side, 3 side chain; linkers in the order of their positions; H or OH if unused. Non-standard residues stand in square brackets, D forms with d. Groups on a side chain read outwards from the residue. *: point of attachment. C18 diacid = O=C(O)CCCCCCCCCCCCCCCCC(=O)*; γGlu = O=C(O)[C@H](CCC(=O)[*:2])N[*:1]; αMe4Pal = C[C@](N)(Cc1ccncc1)C(=O)O; 4Pal = N[C@@H](Cc1ccncc1)C(=O)O; αMeL = CC(C)C[C@](C)(N)C(=O)O; Orn = NCCC[C@H](N)C(=O)O; Aib = CC(C)(N)C(=O)O

As usually defined, the EC50 is the midpoint of the concentration-response curve.
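Throughout, for Relative cAMP EC50, hGIPR: intracellular cAMP rise after 30 min at 37 °C read by HTRF against a standard curve, scaled between buffer alone (0%) and top control ligand concentration (100%), four-parameter fit.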
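Throughout, for Relative cAMP EC50, hGLP-1R: intracellular cAMP rise after 30 min at 37 °C read by HTRF, normalized between buffer only (0%) and maximal control ligand (100%), four-parameter variable-slope fit.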
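Throughout, for Relative cAMP EC50, hGcgR: intracellular cAMP rise after 30 min at 37 °C, read by HTRF against a cAMP standard curve, scaled from buffer only (0%) to maximal control ligand response (100%).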

T1 sequence (P43220 24-463): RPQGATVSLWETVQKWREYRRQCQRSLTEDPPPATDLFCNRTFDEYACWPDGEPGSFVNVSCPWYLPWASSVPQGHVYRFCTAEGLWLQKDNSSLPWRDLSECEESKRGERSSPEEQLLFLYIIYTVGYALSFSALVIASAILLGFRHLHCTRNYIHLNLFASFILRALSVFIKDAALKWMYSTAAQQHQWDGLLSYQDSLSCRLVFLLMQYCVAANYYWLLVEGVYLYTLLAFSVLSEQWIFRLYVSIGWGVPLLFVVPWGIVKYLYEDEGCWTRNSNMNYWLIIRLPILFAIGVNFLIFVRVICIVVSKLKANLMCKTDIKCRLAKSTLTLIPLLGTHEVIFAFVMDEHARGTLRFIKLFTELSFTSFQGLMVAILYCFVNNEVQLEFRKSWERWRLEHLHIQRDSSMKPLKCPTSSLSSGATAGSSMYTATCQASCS
Sequence of hGcgR (P47871 26-477): as the sequence (P47871 26-477) above

Consider `CC[C@H](C)[C@H](NC(=O)[C@H](Cc1ccccc1)NC(=O)[C@H](C)NC(=O)C(C)(C)NC(=O)[C@H](CCC(N)=O)NC(=O)[C@H](C)NC(=O)[C@H](CCCCNC(=O)CC[C@H](NC(=O)CC[C@H](NC(=O)CCCCCCCCCCCCCCCCC(=O)O)C(=O)O)C(=O)O)NC(=O)[C@H](CCCCN)NC(=O)[C@H](CC(=O)O)NC(=O)[C@H](CC(C)C)NC(=O)[C@H](CC(C)C)NC(=O)[C@@H](NC(=O)[C@H](CO)NC(=O)[C@H](Cc1ccc(O)cc1)NC(=O)[C@H](CC(=O)O)NC(=O)[C@H](CO)NC(=O)[C@@H](NC(=O)[C@](C)(Cc1ccccc1F)NC(=O)[C@@H](NC(=O)CNC(=O)[C@H](CCC(N)=O)NC(=O)C(C)(C)NC(=O)[C@@H](N)Cc1ccc(O)cc1)[C@@H](C)O)[C@@H](C)O)[C@@H](C)CC)C(=O)N[C@@H](CCC(=O)O)C(=O)N[C@@H](Cc1ccc(O)cc1)C(=O)N[C@@H](CC(C)C)C(=O)N[C@@H](CCC(=O)O)C(=O)N[C@@H](CCC(=O)O)C(=O)NCC(=O)NCC(=O)N1CCC[C@H]1C(=O)N[C@@H](CO)C(=O)N[C@@H](CO)C(=O)NCC(=O)N[C@@H](CCC(=O)O)C(=O)N1CCC[C@H]1C(=O)N1CCC[C@H]1C(=O)N1CCC[C@H]1C(=O)N[C@@H](CO)C(N)=O` [Example 432], for which the half-maximal effective concentration (EC50) at hGcgR stood at 1.6 nM; on hGLP-1R [1], 0.431 nM; on human GcgR, 384 nM; on hGLP-1R [2] it was 41.7 nM; on hGIPR [3], 0.0297 nM.
Consider `CC[C@H](C)[C@H](NC(=O)[C@H](Cc1ccccc1)NC(=O)[C@H](C)NC(=O)C(C)(C)NC(=O)[C@H](C)NC(=O)[C@H](C)NC(=O)[C@H](CCCCNC(=O)COCCOCCNC(=O)CC[C@H](NC(=O)CCCCCCCCCCCCCCCCC(=O)O)C(=O)O)NC(=O)[C@H](CCCCN)NC(=O)[C@H](CC(=O)O)NC(=O)[C@H](CC(C)C)NC(=O)[C@](C)(CC(C)C)NC(=O)[C@@H](NC(=O)[C@H](CO)NC(=O)[C@H](Cc1ccc(O)cc1)NC(=O)[C@H](CC(=O)O)NC(=O)[C@H](CO)NC(=O)[C@@H](NC(=O)[C@](C)(Cc1ccccc1F)NC(=O)[C@@H](NC(=O)CNC(=O)[C@H](CCC(N)=O)NC(=O)C(C)(C)NC(=O)[C@@H](N)Cc1c[nH]cn1)[C@@H](C)O)[C@@H](C)O)[C@@H](C)CC)C(=O)N[C@@H](CCC(=O)O)C(=O)N[C@@H](Cc1ccc(O)cc1)C(=O)N[C@@H](CC(C)C)C(=O)N[C@H](C(=O)N[C@@H](CCC(=O)O)C(=O)N[C@H](C(=O)NCC(=O)N1CCC[C@H]1C(=O)N[C@@H](CO)C(=O)N[C@@H](CO)C(=O)NCC(=O)N[C@@H](CCC(=O)O)C(=O)N1CCC[C@H]1C(=O)N1CCC[C@H]1C(=O)N1CCC[C@H]1C(=O)N[C@@H](CO)C(=O)N[C@@H](CCC(=O)O)C(=O)NCC(N)=O)[C@@H](C)O)[C@@H](C)CC` [Example 291], for which the EC50 came to 1.88 nM on hGcgR (setting [5]); 0.22 nM on hGLP-1R [1] (setting [5]); 311 nM at human GcgR (HEK-293 clonal cells expressing hGcgR, in the presence of 1% HSA, geometric mean of relative EC50); 24.5 nM at hGLP-1R [2] (HEK-293 clonal cells expressing hGLP-1R, in the presence of 1% HSA, geometric mean of relative EC50); 0.26 nM at hGIPR [3] (setting [5]).
Regarding `CC[C@H](C)[C@H](NC(=O)[C@H](Cc1ccccc1)NC(=O)[C@H](C)NC(=O)C(C)(C)NC(=O)[C@H](CCC(N)=O)NC(=O)[C@H](C)NC(=O)[C@H](CCCCNC(=O)COCCOCCNC(=O)CC[C@H](NC(=O)CCCCCCCCCCCCCCCCC(=O)O)C(=O)O)NC(=O)[C@H](CCCCN)NC(=O)[C@H](CC(=O)O)NC(=O)[C@H](CC(C)C)NC(=O)[C@](C)(CC(C)C)NC(=O)[C@H](CCCN)NC(=O)[C@H](CO)NC(=O)[C@H](Cc1ccccc1)NC(=O)[C@H](CC(=O)O)NC(=O)[C@H](CO)NC(=O)[C@@H](NC(=O)[C@H](Cc1ccccc1)NC(=O)[C@@H](NC(=O)CNC(=O)[C@H](CCC(N)=O)NC(=O)C(C)(C)NC(=O)[C@@H](N)Cc1ccc(O)cc1)[C@@H](C)O)[C@@H](C)O)C(=O)N[C@@H](CCC(=O)O)C(=O)N[C@@H](Cc1c[nH]c2ccccc12)C(=O)N[C@@H](CC(C)C)C(=O)N[C@@H](CC(C)C)C(=O)N[C@@H](CCC(=O)O)C(=O)NCC(=O)NCC(=O)N1CCC[C@H]1C(=O)N[C@@H](CO)C(=O)N[C@@H](CO)C(=O)NCC(=O)N[C@@H](C)C(=O)N1CCC[C@H]1C(=O)N1CCC[C@H]1C(=O)N1CCC[C@H]1C(=O)N[C@@H](Cc1ccncc1)C(=O)NCC(=O)N[C@@H](CO)C(N)=O` [Example 251], the concentration giving a half-maximal response (EC50) came to 6.98 nM on hGcgR (setting [5]); 2.64 nM on hGLP-1R [1] (setting [5]); 1500 nM on human GcgR; 301 nM at hGLP-1R [2]; 0.153 nM on hGIPR [3] (setting [5]).
On the same counts, the results for `CC[C@H](C)[C@H](NC(=O)[C@H](CC(C)C)NC(=O)[C@H](Cc1ccc(O)cc1)NC(=O)[C@H](CCC(=O)O)NC(=O)[C@@H](NC(=O)[C@H](Cc1ccccc1)NC(=O)[C@H](C)NC(=O)[C@](C)(Cc1ccncc1)NC(=O)[C@H](CCC(N)=O)NC(=O)[C@H](C)NC(=O)[C@H](CCCCNC(=O)COCCOCCNC(=O)CC[C@H](NC(=O)CCCCCCCCCCCCCCCCC(=O)O)C(=O)O)NC(=O)[C@H](CCCCN)NC(=O)[C@H](CC(=O)O)NC(=O)[C@H](CC(C)C)NC(=O)[C@](C)(CC(C)C)NC(=O)[C@H](CCC(N)=O)NC(=O)[C@H](CO)NC(=O)[C@H](Cc1ccncc1)NC(=O)[C@H](CC(=O)O)NC(=O)[C@H](CO)NC(=O)[C@@H](NC(=O)[C@H](Cc1ccccc1)NC(=O)[C@@H](NC(=O)CNC(=O)[C@H](CCC(N)=O)NC(=O)C(C)(C)NC(=O)[C@@H](N)Cc1ccc(O)cc1)[C@@H](C)O)[C@@H](C)O)[C@@H](C)CC)C(=O)N[C@@H](CCC(=O)O)C(=O)NCC(=O)NCC(=O)N[C@@H](CCC(=O)O)C(=O)N[C@@H](CO)C(=O)N[C@@H](CO)C(=O)NCC(=O)N[C@@H](C)C(=O)N1CCC[C@H]1C(=O)N1CCC[C@H]1C(=O)N1CCC[C@H]1C(=O)N[C@@H](CO)C(=O)NCC(=O)N[C@@H](CO)C(N)=O` [Example 793] are 3.79 nM, 3.19 nM, 1660 nM, 559 nM and 0.834 nM.
For `CC[C@H](C)[C@H](NC(=O)[C@H](Cc1ccccc1)NC(=O)[C@H](CCCN)NC(=O)C(C)(C)NC(=O)[C@H](CCC(N)=O)NC(=O)[C@H](C)NC(=O)[C@H](CCCCNC(=O)COCCOCCNC(=O)CC[C@H](NC(=O)CCCCCCCCCCCCCCCCCCC(=O)O)C(=O)O)NC(=O)[C@H](CCCN)NC(=O)[C@H](CC(=O)O)NC(=O)[C@H](CC(C)C)NC(=O)[C@](C)(CC(C)C)NC(=O)[C@@H](NC(=O)[C@H](CO)NC(=O)[C@H](Cc1ccncc1)NC(=O)[C@H](CC(=O)O)NC(=O)[C@H](CO)NC(=O)[C@@H](NC(=O)[C@](C)(Cc1ccccc1F)NC(=O)[C@@H](NC(=O)CNC(=O)[C@H](CCC(N)=O)NC(=O)C(C)(C)NC(=O)[C@@H](N)Cc1ccc(O)cc1)[C@@H](C)O)[C@@H](C)O)[C@@H](C)CC)C(=O)N[C@H](CCC(=O)O)C(=O)N[C@@](C)(Cc1ccc(O)cc1)C(=O)N[C@@H](CC(C)C)C(=O)N[C@@H](CC(C)C)C(=O)N[C@@H](CCC(=O)O)C(=O)NCC(=O)NCC(=O)N1CCC[C@H]1C(=O)N[C@@H](CO)C(=O)N[C@@H](CO)C(=O)NCC(=O)N[C@@H](CCC(=O)O)C(=O)N1CCC[C@H]1C(=O)N1CCC[C@H]1C(=O)N1CCC[C@H]1C(=O)N[C@@H](CO)C(N)=O` [Example 365] the same measures were 4.24 nM, 0.265 nM, 1490 nM, 75.2 nM and 0.0336 nM.
As for “H-Y[Aib]QGTFTSD[4Pal]S[Orn][αMeL]LDKK([Glu-γGlu-C18 diacid])AQ[αMe4Pal]AFIEYLIAGGPSSGAPPPSGSEE-NH2 [Example 1060]”, the EC50 on hGcgR (setting [5]) came out at 9.08 nM; at hGLP-1R [1] (setting [5]) it was 2.85 nM; at human GcgR it was 4900 nM; on hGIPR [3] (setting [5]) it was 0.223 nM; on hGIPR [4], 44.7 nM.
On the same counts, the results for “H-Y[Aib]QGTFTSD[4Pal]S[Orn][αMeL]LD[Orn]K([γGlu-γGlu-C18 diacid])AQ[αMe4Pal]AFIEYLIAGGPSSGAPPPSGSEE-NH2 [Example 1059]” are 7.52 nM, 4.61 nM, 748 nM, 0.468 nM and 48.9 nM.

These data come from patent US20240270821A1, “GIP/GLP1/GCG TRI-RECEPTOR AGONISTS AND USES THEREOF” (priority 2023, published 2024).
